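Five concentrations, 48 hours, 96-well plates. GI50 marks 50% less growth. The concentration for full growth arrest is given as TGI.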
What was measured:
Assay in all cases: NCI anticancer screen, dose series, 48 h
TK-10 renal = test system: TK-10 renal
SK-MEL-5 melanoma = test system: SK-MEL-5 melanoma
U251 CNS = test system: U251 CNS
SNB-19 CNS = test system: SNB-19 CNS
UO-31 renal = test system: UO-31 renal
ACHN renal = test system: ACHN renal
KM12 colon = test system: KM12 colon
RPMI-8226 leukemia = test system: RPMI-8226 leukemia
HOP-92 NSCLC = test system: HOP-92 NSCLC
MDA-MB-231 breast = test system: MDA-MB-231 breast

## CCC[CH2][Sn]([CH2]CCC)([S]c1cccc2cccnc12)[S]c1cccc2cccnc12
TK-10 renal
  GI50: 0.249 µM
  TGI: 0.552 µM
SK-MEL-5 melanoma
  GI50: 0.201 µM
  TGI: 0.534 µM
U251 CNS
  GI50: 0.197 µM
  TGI: 0.409 µM
SNB-19 CNS
  GI50: 0.373 µM
  TGI: 1.39 µM
UO-31 renal
  GI50: 0.189 µM
  TGI: 0.345 µM
ACHN renal
  GI50: 0.193 µM
  TGI: 0.396 µM

## Cc1cc(N(CCC#N)CCC#N)ccc1N=Nc1ccc(S(N)(=O)=O)cc1
TK-10 renal
  TGI: > 100 µM
SK-MEL-5 melanoma
  TGI: > 100 µM
U251 CNS
  TGI: > 100 µM
SNB-19 CNS
  TGI: > 100 µM
KM12 colon
  TGI: > 100 µM
UO-31 renal
  TGI: > 100 µM
ACHN renal
  TGI: > 100 µM
RPMI-8226 leukemia
  TGI: > 100 µM

## CNC(=S)OCCC(C)CCCC(C)C (stereo not drawn)
TK-10 renal
  TGI: 25.5 µM
SK-MEL-5 melanoma
  TGI: 31.6 µM
U251 CNS
  TGI: 30.1 µM
SNB-19 CNS
  TGI: 33.4 µM
KM12 colon
  TGI: 27.8 µM
UO-31 renal
  TGI: 20.7 µM
ACHN renal
  TGI: 32.8 µM
RPMI-8226 leukemia
  TGI: 26.8 µM

## NC(=O)NO.O.O.O.O.O.O.O.O.O.O.O.[Ge].[Ge].[Ge].[Ge].[Ge].[O]=[Ge].[O]=[Ge].[O]=[Ge].[O]=[Ge].[O]=[Ge][OH]
TK-10 renal
  TGI: > 100 µM
SK-MEL-5 melanoma
  TGI: > 100 µM
U251 CNS
  TGI: 69.9 µM
SNB-19 CNS
  TGI: > 100 µM
KM12 colon
  TGI: > 100 µM
UO-31 renal
  TGI: > 100 µM
ACHN renal
  TGI: > 100 µM
HOP-92 NSCLC
  TGI: > 100 µM
RPMI-8226 leukemia
  TGI: > 100 µM

## CCCCCCCCCCCC(=O)OCCOCCOCCOCCOCCOCc1ccccc1
TK-10 renal
  TGI: > 100 µM
SK-MEL-5 melanoma
  TGI: > 100 µM
U251 CNS
  TGI: > 100 µM
SNB-19 CNS
  TGI: > 100 µM
KM12 colon
  TGI: > 100 µM
UO-31 renal
  TGI: > 100 µM
ACHN renal
  TGI: > 100 µM
HOP-92 NSCLC
  TGI: > 100 µM
RPMI-8226 leukemia
  TGI: > 100 µM

## CCN(CC)CCSc1c2ccccc2nc2cc(NCC(=O)Nc3ccccc3-c3ccccc3NC(=O)CNc3ccc4c(SCCN(CC)CC)c5ccccc5nc4c3)ccc12
TK-10 renal
  TGI: > 100 µM
SK-MEL-5 melanoma
  TGI: > 100 µM
U251 CNS
  TGI: > 100 µM
SNB-19 CNS
  TGI: > 100 µM
KM12 colon
  TGI: > 100 µM
UO-31 renal
  TGI: > 100 µM
ACHN renal
  TGI: > 100 µM
HOP-92 NSCLC
  TGI: > 100 µM
RPMI-8226 leukemia
  TGI: > 100 µM

## Fc1ccc(NC(=S)SCc2ccc3c(c2)OCO3)cc1F
TK-10 renal
  TGI: > 100 µM
MDA-MB-231 breast
  TGI: > 100 µM
SK-MEL-5 melanoma
  TGI: 29.5 µM
U251 CNS
  TGI: 43.1 µM
SNB-19 CNS
  TGI: 39.3 µM
KM12 colon
  TGI: 61.7 µM
UO-31 renal
  TGI: 37.9 µM
ACHN renal
  TGI: 64.4 µM
HOP-92 NSCLC
  TGI: 88.9 µM

## O=C(CCc1nc(=S)[nH][nH]1)Nc1cc(Cl)c(Cl)cc1Cl
TK-10 renal
  TGI: > 100 µM
SK-MEL-5 melanoma
  TGI: > 100 µM
U251 CNS
  TGI: > 100 µM
SNB-19 CNS
  TGI: > 100 µM
KM12 colon
  TGI: > 100 µM
UO-31 renal
  TGI: > 100 µM
ACHN renal
  TGI: > 100 µM
HOP-92 NSCLC
  TGI: > 100 µM
RPMI-8226 leukemia
  TGI: > 100 µM

## Cc1c(C(=O)CC(=O)C(=O)Nc2ccccc2C(F)(F)F)[n+](=O)c2ccccc2n1[O-]
TK-10 renal
  TGI: > 100 µM
SK-MEL-5 melanoma
  TGI: 30.4 µM
U251 CNS
  TGI: 49 µM
SNB-19 CNS
  TGI: > 100 µM
KM12 colon
  TGI: 61.6 µM
UO-31 renal
  TGI: > 100 µM
ACHN renal
  TGI: > 100 µM
HOP-92 NSCLC
  TGI: 60.1 µM
RPMI-8226 leukemia
  TGI: 24.2 µM

## C=CCO[C@H]1CO[C@H]2[C@@H]1OC[C@@H]2Oc1ccc(Nc2ccnc(Nc3ccc(O[C@H]4CO[C@H]5[C@@H]4OC[C@@H]5OCC=C)c(Cl)c3)n2)cc1Cl
TK-10 renal
  GI50: 1.86 µM
  TGI: 3.63 µM
MDA-MB-231 breast
  GI50: 1.69 µM
  TGI: 3.23 µM
SK-MEL-5 melanoma
  GI50: 1.46 µM
  TGI: 2.8 µM
U251 CNS
  GI50: 1.85 µM
  TGI: 3.83 µM
SNB-19 CNS
  GI50: 2 µM
  TGI: 3.73 µM
KM12 colon
  GI50: 1.65 µM
  TGI: 3.08 µM
UO-31 renal
  GI50: 1.58 µM
  TGI: 2.93 µM
ACHN renal
  GI50: 1.77 µM
  TGI: 3.31 µM
HOP-92 NSCLC
  GI50: 1.66 µM
  TGI: 3.3 µM

## CO/C(=N\N=C\c1ccc(C(F)(F)F)cc1)c1ccncc1
TK-10 renal
  TGI: > 10 µM
MDA-MB-231 breast
  TGI: > 10 µM
U251 CNS
  TGI: > 10 µM
SNB-19 CNS
  TGI: > 10 µM
KM12 colon
  TGI: > 10 µM
UO-31 renal
  TGI: > 10 µM
ACHN renal
  TGI: > 10 µM
HOP-92 NSCLC
  TGI: > 10 µM
RPMI-8226 leukemia
  TGI: > 10 µM

## CC(C)=CCC\C(C)=C/C=C/C(C)=C\C=C\C(C)=C/C=C/C=C(C)\C=C\C=C(C)/C=C/C=C(/C)CCC=C(C)C
TK-10 renal
  TGI: > 100 µM
MDA-MB-231 breast
  TGI: > 100 µM
SK-MEL-5 melanoma
  TGI: > 100 µM
SNB-19 CNS
  TGI: > 100 µM
KM12 colon
  TGI: > 100 µM
UO-31 renal
  TGI: > 100 µM
ACHN renal
  TGI: > 100 µM
HOP-92 NSCLC
  TGI: > 100 µM

## COc1ccccc1N1C(=O)C2c3[nH]c4ccccc4c3C3CCC(C(C)(C)C)CC3C2C1=O (stereo not drawn)
SK-MEL-5 melanoma
  TGI: > 100 µM
U251 CNS
  TGI: > 100 µM
SNB-19 CNS
  TGI: > 100 µM
UO-31 renal
  TGI: > 100 µM
ACHN renal
  TGI: > 100 µM
HOP-92 NSCLC
  TGI: > 100 µM
RPMI-8226 leukemia
  TGI: > 100 µM

## Cc1ccc(S(=O)(=O)OC[C@@H]2CO2)cc1
TK-10 renal
  TGI: > 100 µM
SK-MEL-5 melanoma
  TGI: > 100 µM
SNB-19 CNS
  TGI: > 100 µM
KM12 colon
  TGI: > 100 µM
UO-31 renal
  TGI: > 100 µM
ACHN renal
  TGI: > 100 µM
HOP-92 NSCLC
  TGI: > 100 µM

## Nc1ccccc1S(=O)(=O)N(CC(=O)O)c1ccccc1
TK-10 renal
  TGI: > 100 µM
SK-MEL-5 melanoma
  TGI: > 100 µM
U251 CNS
  TGI: > 100 µM
SNB-19 CNS
  TGI: > 100 µM
UO-31 renal
  TGI: > 100 µM
ACHN renal
  TGI: > 100 µM
HOP-92 NSCLC
  TGI: > 100 µM
RPMI-8226 leukemia
  TGI: > 100 µM

## NC1=NCCC1(c1ccccc1)c1ccccn1 (stereo not drawn)
TK-10 renal
  TGI: > 100 µM
SK-MEL-5 melanoma
  TGI: > 100 µM
U251 CNS
  TGI: > 100 µM
SNB-19 CNS
  TGI: > 100 µM
KM12 colon
  TGI: > 100 µM
ACHN renal
  TGI: > 100 µM
HOP-92 NSCLC
  TGI: > 100 µM
RPMI-8226 leukemia
  TGI: > 100 µM

## NS(=O)(=O)c1ccc2c(c1)OCCOCCOCCOCCO2
TK-10 renal
  TGI: > 100 µM
MDA-MB-231 breast
  TGI: > 100 µM
SK-MEL-5 melanoma
  TGI: > 100 µM
SNB-19 CNS
  TGI: > 100 µM
KM12 colon
  TGI: > 100 µM
UO-31 renal
  TGI: > 100 µM
ACHN renal
  TGI: > 100 µM
RPMI-8226 leukemia
  TGI: > 100 µM

## NS(=O)(=O)OC[C@@H]1C[C@@H](n2ccc3c(NC4CCc5ccccc54)ncnc32)C[C@@H]1O (stereo partly drawn)
TK-10 renal
  GI50: 14.1 µM
  TGI: > 100 µM
MDA-MB-231 breast
  GI50: 10.1 µM
  TGI: > 100 µM
SK-MEL-5 melanoma
  GI50: 0.305 µM
  TGI: 17.2 µM
U251 CNS
  GI50: 0.559 µM
  TGI: 36.9 µM
SNB-19 CNS
  GI50: 12.5 µM
  TGI: > 100 µM
KM12 colon
  GI50: 1.13 µM
  TGI: 49.1 µM
UO-31 renal
  GI50: 11 µM
  TGI: > 100 µM
ACHN renal
  GI50: 0.332 µM
  TGI: 1.8 µM
RPMI-8226 leukemia
  GI50: 5.41 µM
  TGI: 27.6 µM

## OCC1=CC(NC2CC(CO)C(O)C(O)C2O)C(O)C(O)C1O (stereo not drawn)
TK-10 renal
  TGI: > 100 µM
U251 CNS
  TGI: > 100 µM
SNB-19 CNS
  TGI: > 100 µM
KM12 colon
  TGI: > 100 µM
UO-31 renal
  TGI: > 100 µM
ACHN renal
  TGI: > 100 µM
RPMI-8226 leukemia
  TGI: > 100 µM

## CCOC(=O)CCC1(C(=O)OCC)CCCCC1=O (stereo not drawn)
TK-10 renal
  TGI: > 100 µM
SK-MEL-5 melanoma
  TGI: > 100 µM
U251 CNS
  TGI: > 100 µM
SNB-19 CNS
  TGI: > 100 µM
KM12 colon
  TGI: > 100 µM
UO-31 renal
  TGI: > 100 µM
ACHN renal
  TGI: > 100 µM
HOP-92 NSCLC
  TGI: > 100 µM
RPMI-8226 leukemia
  TGI: > 100 µM

## CN(C)N=Nc1ccc(C(N)=O)cc1
TK-10 renal
  TGI: > 100 µM
SK-MEL-5 melanoma
  TGI: > 100 µM
U251 CNS
  TGI: > 100 µM
SNB-19 CNS
  TGI: > 100 µM
KM12 colon
  TGI: > 100 µM
UO-31 renal
  TGI: > 100 µM
ACHN renal
  TGI: > 100 µM
HOP-92 NSCLC
  TGI: > 100 µM
RPMI-8226 leukemia
  TGI: > 100 µM
